Like-named read-outs stand apart in the source and are kept apart here. Where a SMILES comes first, the peptide text is derived from it. Where no end group is shown, it is not given here.
Tests used:
[1] = cited from earlier work
Excerpt: Static contact angle measurements are a conventional method to determine the wettability of surfaces. This method involves assessing the angle formed between the solid surface, the liquid droplet, and the vapor phase at the three-phase contact point. […] Electrospun fibers unlo ...

HNE = conditions: AAPV from co-axial wet-spun microfibers; cited from earlier work
Experimental: During the first 6 h of incubation, nearly 10% of HNE was inhibited by the peptide released from the PCL fibers. This is consistent with the data from Figure 5 since, at this point, >50% of the peptide molecules have been released. In fact, in the absence of PEG, HNE inhibition reached its maximum at this stage, maintaining the levels of enzyme activity in a constant manner until the 24 h period. […] However, considering its hydrophobic nature and affinity towards PCL, it i ...

S. aureus = conditions: loaded at the core of co-axial microfibers; cited from earlier work
Experimental: From the very first moments of incubation, PEG-containing fibers were the ones reporting the highest bacterial inhibitions, a minimum of ≈30% against S. aureus and ≈40% against E. coli. […] In general, the highest ratings for peptide-induced inhibition (in many instances potentiated by PEG) were ...

bacteria = conditions: effectiveness limited to concentrations over this; cited from earlier work
Excerpt: Despite its efficacy, the widespread pharmaceutical application of peptides faces obstacles, including limited stability in physiological settings and susceptibility to environmental factors. However, AAPV’s overall hydrophilicity (despite the presence of hydrophobic domains) tends to reduce its bioavailability and cellular tissue permeability. The attachment of hydrophobic carriers/molecules can overcome these limitations. Tryptophan (W) is an aromatic hydrophobic amino acid, which has been associated with the activation of antibacterial properties (disturbance of bacterial membra ...

[2] = system: human neutrophil elastase (HNE; elastase from human leukocytes); conditions: 1 h, 37 °C, 405 nm, n = 3, cited from earlier work
Experimental: Table 1 Inhibition of HNE activity by AAPV [8] and WAAPV at varying concentrations (n = 3). | column: HNE Inhibition (%) / AAPV || AAPV presented its maximum inhibitory capacity at a concentration of 50 μg/mL, which is in accordance with previous research conducted by our team. According to Namjoshi et al., the ability of HNE to digest substrates decreases with increasing inhibitor concentrations. […] Suc ...

[3] = system: human neutrophil elastase (HNE); assay: HNE inhibition by peptide-loaded electrospun fibers; assay type: biochemical; conditions: AAPV from PCL electrospun fibers, PBS, 37 °C
[4] = assay type: physicochemical
Experimental: Thermal responses of the fibers were assessed by a thermogravimetric analysis (TGA). Weight loss was monitored as the temperature increased from 25 to 600 °C at a heating rate of 10 °C/min under a dynamic nitrogen atmosphere with a flow rate of 200 mL/min, using an STA 7200 instrument (Hitachi®, Fukuoka, Japan) and aluminum pans. Results were plotted as the percentage of weight loss vs. temperature. Water contact angles were determined using an OCA 200 goniometer, Data Physics (Filderstadt, Germany), following an adaptation of the ASTM-[…]-08 standard. Droplets of 5.0 μL of dH2O, ejected at a rate of 2.0 μL/s, were used to measure the fibers' wettability via the sessile drop method. Six measurements were conducted per type of sample. Angles were recorded immediately after drop contact with the surface (≈10 s after contact).

[5] = system: Staphylococcus aureus ATCC 6538; assay type: cell-based; conditions: ATCC 6538, 24 h
Experimental: Minimum inhibitory concentration (MIC) of both peptides and PEG was determined, against S. aureus and E. coli by the broth microdilution method, based on a publication by the Clinical and Laboratory Standards Institute (CLSI) and European Committee on Antimicrobial Susceptibility Testing (EUCAST). For this test, AAPV and WAAPV were dissolved in dH2O at a concentration of 4.096 mg/mL, whereas PEG was also diluted in dH2O at 10.240 mg/mL, working as stock solutions. […] Then, a bacterium suspension at 1 × 10^6 CFUs/mL was added to the wells. Controls consisting of MHB and bacteria suspensions free from any of the active agents were produced, representing the negative and positive control samples, respectively. Absorbance readings were conducted with an EZ Read 2000 Microplate Reader at 600 nm before (0 h) and 24 h after incubation at 37 °C at 120 rpm. MIC was then perceived by the differences between the several absorbance readings. Minimum bactericidal concentrations (MBCs) were established by the culture of the same bacterium suspensions at MIC and their vicinities (dilutions before and after MIC value). Aliquots were collected and diluted in PBS (10^−1–10^−4). Then, the aliquots were plated in TSA and incubated at 37 °C during 24 h, after which the grown colonies were observed and counted.

[6] = assay type: physicochemical; conditions: not told
Experimental: The fibers’ capacity for air exchange (permeability) was examined according to standard ISO 9237 [24]. Air pressure of 200 Pa was applied on three samples of each typology in three randomly selected points of 1.33 cm^2 (1.30 cm diameter), and the permeability was measured. For determining the porosity (P%) of the samples [25], measurements of the amount of ethanol absorbed after 1 h of immersion in static conditions and RT (Equation (1)) were used:(1) P(%)=Ww−WD/ρEthanolVSample×100, where WW and WD are the weight of the wet and dry samples, respectively; ρethanol is the density of the ethanol at RT (0.789 g/cm^3); and Vsample is the volume of the wet sample, determined by measuring the 6 mm diameter samples’ thickness with a pachymeter. The experiment was performed in triplicate.

CC(C)[C@H](NC(=O)[C@@H]1CCCN1C(=O)[C@H](C)NC(=O)[C@H](C)N)C(=O)O (H-AAPV-OH)
main degradation step of free peptide: 200 °C

CC(C)[C@H](NC(=O)[C@@H]1CCCN1C(=O)[C@H](C)NC(=O)[C@H](C)N)C(=O)O [AAPV, alanine–alanine–proline–valine] (H-AAPV-OH)
hydrophilicity of overall structure [1]: hydrophilic
time of maximum HNE inhibition (HNE): 24 h
S. aureus inhibitory activity (S. aureus): found to potentiate this inhibitory activity against S. aureus
effective antimicrobial concentration (bacteria): over 2 mg/mL
HNE Inhibition ([2]; AAPV 0.10 μg/mL): 0.79 ± 0.008%
HNE Inhibition ([2]; AAPV 0.20 μg/mL): 2.37 ± 0.007%
HNE Inhibition ([2]; AAPV 0.39 μg/mL): 3.43 ± 0.005%
HNE Inhibition ([2]; AAPV 0.78 μg/mL): 4.07 ± 0.004%
HNE Inhibition ([2]; AAPV 1.56 μg/mL): 6.43 ± 0.005%
HNE Inhibition ([2]; AAPV 3.13 μg/mL): 8.07 ± 0.007%
HNE Inhibition ([2]; AAPV 6.25 μg/mL): 8.84 ± 0.002%
HNE Inhibition ([2]; AAPV 12.50 μg/mL): 9.56 ± 0.011%
HNE Inhibition ([2]; AAPV 25.00 μg/mL): 12.69 ± 0.002%
HNE Inhibition ([2]; AAPV 50.00 μg/mL): 16.89 ± 0.010%
HNE Inhibition ([2]; AAPV 100.00 μg/mL): 9.53 ± 0.010%
HNE Inhibition ([2]; AAPV 200.00 μg/mL, substrate N-MeO-Suc-Ala-Ala-Pro-Val-p-NA, 0.1 M Tris-HCl, HNE 45 mU): 5.74 ± 0.010%
time of maximum HNE inhibition [3]: 6 h

CC(C)[C@H](NC(=O)[C@@H]1CCCN1C(=O)[C@H](C)NC(=O)[C@H](C)N)C(=O)O [PCL + AAPV] (H-AAPV-OH)
mass loss before main degradation step [4]: ~8%
temperature at which (main) thermal degradation starts [4]: ≈ 335 °C

H-WAAPV-OH
main degradation step of free peptide: 200 °C

WAAPV [PCL + WAAPV]
mass loss before main degradation step [4]: < 4%
temperature at which (main) thermal degradation starts [4]: ≈ 365 °C

WAAPV [WAAPV]
MBC [5]: 2048 µg/mL
MIC [5]: 2048 µg/mL

polycaprolactone [PCL]
Air Permeability [6]: 0.523 ± 0.057 L/min
mass loss before main degradation step [4]: < 4%
temperature at which (main) thermal degradation starts [4]: ≈ 370 °C
temperature range of main thermal degradation [4]: 370-435 °C

— PMC11280037, “Inhibition of Enzyme and Bacteria Activities in Diabetic Ulcer-like Scenarios via WAAPV-Loaded Electrospun Fibers” (Pharmaceutics, 2024)
